Laboratory results taken from patent US9095565B2, “Methods for treating blood disorders” (Phoenicia Biosciences, Inc., priority 2006, dated 2015).

Key:
[1] = test system: mice transgenic for the micro-LCR-201 gamma-globin gene promoter; test: γ-globin induction and hematocrit in transgenic mice; type: in vivo, mouse; settings: IP once/day, 5 days/week, 2 weeks
Procedure: Transgenic mice containing the human fetal globin gene and a micro-Locus Control Region (LCR) received no treatment (controls) or were treated with test compounds and γ-globin mRNA was analyzed by RT-PCR. Compound W was administered to mice transgenic for the micro-LCR-201 gamma-globin gene promoter, by IP injection once/day for 5 days/week for 2 weeks, and gamma-globin mRNA was assayed by qPCR. Hematocrit was analyzed once per week. A significant difference in expression of human fetal globin mRNA and in hematocrit between Control and compound W-treated mice was found in initial experiments as summarized in Table 4 below.

[2] = test system: cells expressing fetal globin (F-cells); test: Experiment 1: proportion of F-cells in hematopoietic colonies by FACScan; type: cell-based, human; settings: same low concentrations as for fetal globin mRNA induction
Procedure: (§1) Erythroid burst-forming units (BFU-E) (erythroid progenitors) and colony-forming units granulocyte-macrophage (CFU-GM) (myeloid colonies) were cultured in semi-solid or in two-phase suspension media, with or without hematopoietic growth factors at high levels (e.g., erythropoietin at 3 U/ml) or reduced levels (BFU-E cell proliferation was evaluated by enumeration in colonies developing in the presence of reduced amounts of erythropoietin (0.5 U/ml) rather than 3 U (or 3000 mU)/ml, which is standard for these experimental systems), from cord blood or the peripheral blood of several types of humans. Experiments were carried out on samples derived from 1) β-thalassemia patients who expressed variable levels of fetal globin at baseline (and in untreated control cultures) and represent a variety of potential individual responses, 2) from normal umbilical cord blood samples, which express 40-50% fetal globin at baseline (and in untreated control cultures), 3) from CD34+ cells isolated from normal adult peripheral blood, which expressed low levels of fetal globin in untreated control cultures and at baseline; and 4) from peripheral blood of patients with sickle cell disease who were receiving treatment with hydroxyurea. These biological samples provide a range of potential difficulty in stimulating fetal globin expression in human patients.
Hematopoietic colonies were enumerated with or without (+/−) the test compounds, and compared to colonies which developed in the presence of hematopoietic growth factors alone from the same subject (untreated control colonies), and proportions of cells expressing fetal globin (F-cells) were analyzed by FACScan analysis.

F-cell = test: Related study: in vitro F cell production; type: cell-based
Procedure: (§2) In a related study, the relative luciferase reporter gene induction, γ-globin gene induction, and F cell production was tested for several of the candidate compounds. The relative in vitro γ-globin gene reporter stimulation for the tested compounds was as follows: compound P>M>W=R=Y. The relative in vitro γ-globin gene induction for the tested compounds was as follows: P>R=M>Y>W>. The relative in vitro F-cell production was as follows: W>Y>R>M>P. The relative potency for F-cell production was as follows: R>M>Y>P>W.

myeloid colonies = test: Experiment 3: myeloid colonies in cord blood cultured without added growth factors; type: cell-based, human; settings: no added growth factors
Procedure: as §1
Control colonies were established in cultures with no added growth factors to support myelopoiesis, in Iscove's Modified Dulbecco's Media (IMDM) methylcellulose media with charcoal-absorbed fetal bovine serum, beta mercaptoethanol, BSA.

γ-globin mRNA = γ-globin mRNA by RT-PCR in erythroid colonies cultured from cord blood; type: cell-based, human
Procedure: γ-globin mRNA was analyzed in control and treated erythroid colonies cultured from cord blood, by RT-PCR.

γ globin promoter = test: β/γ-globin promoter driven reporter gene assay; type: cell-based; settings: Table 2
γ-globin gene reporter = test: Related study: relative luciferase reporter gene induction; type: cell-based
Procedure: as §2

BFU-E = BFU-E cultured from cord blood; type: cell-based, human
Procedure: as §1
In a related study, BFU-E cultured from cord blood, was tested with or without compound M, P, R, T, W, Y, Z, AI, F, or 3-(5-chlorothien-3-yl)acrylic acid.

γ-globin gene = test: Related study: relative in vitro γ-globin gene induction; type: cell-based
Procedure: as §2

[3] = test system: Erythroid colonies (BFU-E); test: Experiment 2: erythroid colonies (BFU-E) cultured from patients with beta thalassemia; type: cell-based, human; settings: optimal panel of growth factors
Procedure: as §1
Erythroid colonies were cultured from patients with beta thalassemia, either without any test compounds (Control), only an optimal panel of hematopoietic growth factors, or with one of the test compounds M, P, T, 2-methyl-1-benzofuran-4-carboxylic acid, V, W, X, Y, AK, AC, or AI. […] Colony numbers were increased above the control cultures (% BFU-E/Control) by anywhere from 25% to 230%. Each of the listed test compounds was tested in at least 5 different patients' blood and the differences were statistically significant.

Erythroid colonies = test: Experiment 6: erythroid colony growth from sickle cell patients receiving hydroxyurea; type: cell-based, human
Procedure: Erythroid colonies from the peripheral blood of 4 patients with sickle cell disease who were receiving treatment with Hydroxyurea (HU), a chemotherapeutic agent which suppresses marrow growth and reduces red blood cell production, were cultured alone or with added test compounds M, P, 2-methyl-1-benzofuran-4-carboxylic acid, V, W, Y (racemic mixture) or AI. L-arginine was added as a neutral control, and had no effect on numbers of erythroid colonies.
2-methyl-1-benzofuran-4-carboxylic acid and compound V require additional samples for statistical evaluation, but had positive effects in 3/3 different patients' cultures. These findings indicate that the test compounds stimulate erythroid cell production particularly in conditions of anemia and bone marrow suppression.

γ-globin = settings: cited from earlier work
[4] = test system: erythroid (red blood cell) colonies; test: Experiment 5: growth of erythroid colonies from cord blood with standard growth factors (EPO and Il-3); type: cell-based, human
Procedure: In an additional study, comparative growth of erythroid (red blood cell) colonies cultured from cord blood samples was evaluated with the addition of growth factors alone or with the addition of test compounds.
Control and test cultures were established from the same samples with the same growth factors (EPO and II-3) with addition of test compounds. The compounds tested were M, P, R, T, W, Y, Z, AI, F and 3-(5-chlorothien-3-yl)acrylic acid. Two compounds previously shown as positive proliferative agents were included for comparison.

| Molecule | Hematocrit ([1]; untreated 51 +/− 0.45) | γ-globin mRNA/S16 (mean relative units) ([1]; untreated 1508) | proportion of F-cells above the percentage in untreated controls [2] | relative in vitro F-cell production (rank order) (F-cell) | relative potency for F-cell production (rank order) (F-cell) | production of myeloid colonies compared to untreated control (myeloid colonies) | Concentration required (γ-globin mRNA; increase in fetal globin mRNA, erythroid colonies from cord blood) [µM] | No. of Positive responses (γ-globin mRNA; positive cultures/cultures tested) | % γ globin promoter induction (above untreated control) (γ globin promoter) | relative in vitro γ-globin gene reporter stimulation (rank order) (γ-globin gene reporter) | numbers of BFU-E colonies compared to controls (BFU-E) | relative in vitro γ-globin gene induction (rank order) (γ-globin gene) | number of erythroid colonies compared to matched control cultures [3] | effect on numbers of erythroid colonies compared to control (Erythroid colonies) | % Change from Control (erythroid colony growth) (Erythroid colonies; micromolar: L-arginine 150, AB 100, PA 100, M 1, P 100, 2-methyl-1-benzofuran-4-carboxylic acid 10, V 10, W 40, Y racemic mix 50, Al 30, Hydroxyurea 20) [%] | Number with effects/No effect (Erythroid colonies; patients' cultures, same concentrations as % Change) | levels required in vitro (γ-globin) [µM] | erythroid colony numbers [4] |
| --- | --- | --- | --- | --- | --- | --- | --- | --- | --- | --- | --- | --- | --- | --- | --- | --- | --- | --- |
| O=C(O)c1cccc(Cn2cc([N+](=O)[O-])cn2)c1 [Compound W] | 57 +/− 3 | 3418 | significant increases | W>Y>R>M>P | R>M>Y>P>W | stimulated production of myeloid colonies | 40 | 5/6 | ** (‘**’ indicates a 100%-200% increase) | P>M>W=R=Y | increased numbers of colonies | P>R=M>Y>W | increased the number of colonies | – | – | – | – | – |
| arginine butyrate | – | – | – | – | – | – | – | – | – | – | – | – | – | decreased numbers of erythroid colonies | −29 | 5/6 | 100 | reduced colony numbers |
